Values after ≈ are worked out from the molar mass of the structure shown.
Key:
[1] = MTT assay, normal cell line BJ1; type: cell-based; conditions: human, at 100 μg/ml, read-out: MTT cell proliferation mortality assay (%) BJ1
Description: (§1) All of the following steps were done in a sterile Laminar flow class II biosafety cabinet (Baker, SG406INT, Sanford, ME, USA). DMEM was used as a suspension medium for breast cancer (MCF7), colorectal cancer (HCT116), prostate cancer (PC3), liver cancer (HePG2), pancreatic cancer (PACA2) and lung cancer (A549), while normal cell line (BJ1) was suspended in DMEM-F12 medium. The selected cell lines were purchased from American Type Culture Collection (ATCC). The media were supplemented with a 1% antimycotic-antibiotic mixture (10,000 µg/ml streptomycin sulfate, 25 µg/ml Amphotericin B, and 10,000 U/ml Potassium Penicillin) and 1% L-glutamine. 10 × 10^4cells/well were seeded in 96 well microtiter plates and incubated for 24 h at 37 ℃ under 5% carbon dioxide using a water-jacketed Carbon dioxide incubator (Sheldon, SCO5A, OR, USA). […] After the incubation time of 72 h, the medium was removed. Afterward, 40 µl MTT salt ([…]) was added to each well and kept for 4 h under the same conditions of 37 °C and 5% carbon dioxide. Finally, 200 μl of 10% Sodium dodecyl sulfate (SDS) in deionized water was added to each well and incubated overnight at 37 °C. The step of SDS addition was done to stop the reaction and dissolve the formed formazan crystals. The absorbance was then measured at a wavelength of 595 nm and the reference wavelength was set at 620 nm using a microplate multi-well reader (Bio-Rad Laboratories Inc., model 3356, California, USA). […] A statistical significance analysis was determined between the samples and the negative control using an independent t-test by SPSS 11 program. Dimethyl sulfoxide (DMSO) was the vehicle that dissolved our synthesized compounds and its concentration in the cells was less than 0.2%. IC50 values were calculated using the GraphPad Prism 6 program. The degree of selectivity of the synthetic compounds was expressed as SI = IC50 of a pure compound in a normal cell line/IC50 of the same pure compound in the cancer cell line, where IC50 is the concentration of the compound required to kill 50% of the cells.

MCF7 breast cancer cells = test: MTT assay, MCF7; conditions: for cytotoxicity at 100 µg/mL / IC50: Homo sapiens, MCF7, 72 h; for cytotoxicity at 100 µg/mL / cytotoxicity: read-out: MTT cell proliferation mortality assay (%) MCF7; for IC50: read-out: IC50 MCF7; for cytotoxicity: at 100 μg/ml, 72 h
Description: as §1

[2] = test system: HCT116 colorectal cancer cells; test: MTT assay, HCT116; conditions: for cytotoxicity at 100 µg/mL / IC50: Homo sapiens, HCT-116, 72 h; for cytotoxicity at 100 µg/mL: read-out: MTT cell proliferation mortality assay (%) HCT116, at 100 μg/ml, 72 h; for IC50: read-out: IC50 HCT116; for cytotoxicity: read-out: MTT cell proliferation mortality assay (%) HCT116, at 100 μg/ml, 72 h
Description: as §1

HePG2 liver cancer cells = test: MTT assay, HePG2; conditions: Homo sapiens, HepG2, 72 h; for cytotoxicity at 100 µg/mL: read-out: MTT cell proliferation mortality assay (%) HePG2; for IC50: read-out: IC50 HePG2
Description: as §1

A549 lung cancer cells = test: MTT assay, A549; conditions: for cytotoxicity at 100 µg/mL: read-out: MTT cell proliferation mortality assay (%) A549, at 100 μg/ml, 72 h
Description: as §1

[3] = test system: PC3 prostate cancer cells; test: MTT assay, PC3; conditions: Homo sapiens, 72 h; for cytotoxicity at 100 µg/mL: read-out: MTT cell proliferation mortality assay (%) PC3, at 100 μg/ml, 72 h; for IC50: read-out: IC50 PC3
Description: as §1

[4] = test system: PACA2 pancreatic cancer cells; test: MTT assay, PACA2; conditions: Homo sapiens, PaCa-2, 72 h; for IC50: read-out: IC50 PACA2; for cytotoxicity at 100 µg/mL: read-out: MTT cell proliferation mortality assay (%) PACA2
Description: as §1

Row | Compound | cytotoxicity at 72 h, 100 μg/ml [1] [%] | cytotoxicity at 100 µg/mL (MCF7 breast cancer cells) [%] | cytotoxicity at 100 µg/mL [2] [%] | cytotoxicity at 100 µg/mL (HePG2 liver cancer cells) [%] | cytotoxicity at 100 µg/mL (A549 lung cancer cells; Homo sapiens, A549, 72 h) [%] | cytotoxicity at 100 µg/mL [3] [%] | IC50 [4] [µg/mL] | cytotoxicity at 100 µg/mL [4] [%] | IC50 (MCF7 breast cancer cells) [µg/mL] | cytotoxicity (MCF7 breast cancer cells) [%] | IC50 (HePG2 liver cancer cells) [µg/mL] | IC50 (A549 lung cancer cells; Homo sapiens, A549, 72 h, read-out: IC50 A549) [µg/mL] | cytotoxicity (A549 lung cancer cells; read-out: MTT cell proliferation mortality assay (%) A549, at 100 μg/ml, 72 h) [%] | IC50 [2] [µg/mL] | IC50 [3] [µg/mL] | cytotoxicity [2] [%]
1 | Clc1ccc(-n2c(Cl)c(-c3ccc(Br)cc3)c3c(N4CCCC4)ncnc32)c(Cl)c1 [Compound 11a, 5-(4-bromophenyl)-6-chloro-7-(2,4-dichlorophenyl)-4-(pyrrolidin-1-yl)-7H-pyrrolo[2,3-d]pyrimidine] | 47.3 ± 1.3 | 65.2 ± 1 | 44.2 ± 0.8 | 7.2 ± 1.3 | 11.8 ± 0.6 | 12.5 ± 1.4 | 55.4 ± 1.4 (≈ 106 µM) | 84.3 ± 1.7 | – | – | – | – | – | – | – | –
2 | COc1ccc(-c2cn(-c3ccc(Cl)cc3Cl)c3nc[nH]c(=O)c23)cc1OC [Compound 3b, 7-(2,4-dichlorophenyl)-5-(3,4-dimethoxyphenyl)-3,7-dihydro-4H-pyrrolo[2,3-d]pyrimidin-4-one] | 3.5 ± 0.9 | 11.5 ± 0.8 | 14.6 ± 0.1 | 10.4 ± 1.7 | 8.5 ± 0.6 | 15.6 ± 1.3 | 69.7 ± 1.3 (≈ 167 µM) | 76.3 ± 1.8 | – | – | – | – | – | – | – | –
3 | Clc1ccc(-n2cc(-c3ccc(Br)cc3)c3c(Cl)ncnc32)c(Cl)c1 [Compound 5, 5-(4-bromophenyl)-4-chloro-7-(2,4-dichlorophenyl)-7H-pyrrolo[2,3-d]pyrimidine] | 16.3 ± 2 | 27.9 ± 1.2 | 60.4 ± 0.9 | 34.5 ± 2.9 | 25.1 ± 0.7 | 42.3 ± 1.3 | – | 29.3 ± 0.8 | – | – | – | – | – | – | – | –
4 | NNc1nc(C(Cl)(Cl)Cl)nc2c1c(-c1ccc(Br)cc1)c(Cl)n2-c1ccc(Cl)cc1Cl [Compound 15, 5-(4-bromophenyl)-6-chloro-7-(2,4-dichlorophenyl)-4-hydrazineyl-2-(trichloromethyl)-7H-pyrrolo[2,3-d]pyrimidine] | 4.5 ± 0.3 | 81.2 ± 0.8 | 100 | 100 | 80 to 90 | 65.9 ± 2.4 | – | 100 | 42.8 ± 0.6 (≈ 71.2 µM) | 80 to 95 | 29.1 ± 0.5 (≈ 48.4 µM) | 54 ± 1.7 (≈ 89.9 µM) | 84.6 ± 0.4 | – | – | –
5 | Clc1ccc(-n2c(Cl)c(-c3ccc(Br)cc3)c3c(N4CCOCC4)ncnc32)c(Cl)c1 [Compound 18a, 4-(5-(4-bromophenyl)-6-chloro-7-(2,4-dichlorophenyl)-7H-pyrrolo[2,3-d]pyrimidin-4-yl)morpholine] | 3.2 ± 1.5 | 41.2 ± 1.5 | 54.2 ± 1.2 | 16.4 ± 1.6 | 22.7 ± 0.9 | 2.1 ± 0.6 | – | 31 ± 1.3 | – | – | – | – | – | – | – | –
6 | Cc1nc2c(c(-c3ccc(Br)cc3)cn2-c2ccc(Cl)cc2Cl)c(=O)[nH]1 [Compound 6, 5-(4-bromophenyl)-7-(2,4-dichlorophenyl)-2-methyl-3,7-dihydro-4H-pyrrolo[2,3-d]pyrimidin-4-one] | 84.9 ± 0.7 | 100 | 100 | – | – | 100 | 40 ± 1 (≈ 89.1 µM) | 100 | 15.2 ± 0.9 (≈ 33.8 µM) | – | – | – | – | 31.2 ± 0.9 (≈ 69.5 µM) | 31.1 ± 0.9 (≈ 69.2 µM) | –
7 | CN1CCN(c2ncnc3c2c(-c2ccc(Br)cc2)c(Cl)n3-c2ccc(Cl)cc2Cl)CC1 [Compound 16a, 5-(4-bromophenyl)-6-chloro-7-(2,4-dichlorophenyl)-4-(4-methylpiperazin-1-yl)-7H-pyrrolo[2,3-d]pyrimidine] | 70.5 ± 0.4 | 73.6 ± 2.2 | 73.2 ± 0.8 | 100 | 3.2 ± 0.5 | 3.8 ± 0.3 | – | 7.5 ± 1.1 | – | – | – | – | – | – | – | –
8 | COc1nc(C(Cl)(Cl)Cl)nc2c1c(-c1ccc(Br)cc1)c(Cl)n2-c1ccc(Cl)cc1Cl [Compound 8, 5-(4-bromophenyl)-6-chloro-7-(2,4-dichlorophenyl)-4-methoxy-2-(trichloromethyl)-7H-pyrrolo[2,3-d]pyrimidine] | 15.6 ± 2.8 | 84.3 ± 2.5 | 80 to 90 | 100 | 19.3 ± 1.2 | 13.5 ± 1.5 | 23.5 ± 0.6 (≈ 39.1 µM) | 100 | 48 ± 1.5 (≈ 79.9 µM) | 80 to 95 | 17.8 ± 1.3 (≈ 29.6 µM) | – | – | 68.1 ± 1 (≈ 113 µM) | – | 80 ± 1
9 | COc1ncnc2c1c(-c1ccc(Br)cc1)c(Cl)n2-c1ccc(Cl)cc1Cl [Compound 9a, 5-(4-bromophenyl)-6-chloro-7-(2,4-dichlorophenyl)-4-methoxy-7H-pyrrolo[2,3-d]pyrimidine] | 37.8 ± 0.6 | 75.2 ± 3.6 | 52.1 ± 0.8 | – | 58.6 ± 1.3 | 53.8 ± 0.3 | – | 1.3 ± 0.2 | – | – | – | – | – | – | – | –
10 | S=c1[nH]cnc2c1c(-c1ccc(Br)cc1)c(Cl)n2-c1ccc(Cl)cc1Cl [Compound 12, 5-(4-bromophenyl)-6-chloro-7-(2,4-dichlorophenyl)-3,7-dihydro-4H-pyrrolo[2,3-d]pyrimidine-4-thione] | 100 | 100 | 64.3 ± 1.1 | 26.3 ± 3.4 | 71.3 ± 1.6 | 3.1 ± 0.2 | 59.7 ± 0.7 (≈ 123 µM) | 81.5 ± 1.2 | 11.9 ± 0.9 (≈ 24.5 µM) | – | – | – | – | – | – | –
11 | Clc1ccc(-n2c(Cl)c(-c3ccc(Br)cc3)c3c(Cl)nc(C(Cl)(Cl)Cl)nc32)c(Cl)c1 [Compound 7, 5-(4-bromophenyl)-4,6-dichloro-7-(2,4-dichlorophenyl)-2-(trichloromethyl)-7H-pyrrolo[2,3-d]pyrimidine] | 100 | 100 | 100 | – | 14.2 ± 0.8 | 54.2 ± 1.6 | – | 100 | 16.2 ± 1.6 (≈ 26.8 µM) | – | – | – | – | – | – | –
12 | COc1ccc(-c2c(Cl)n(-c3ccc(Cl)cc3Cl)c3ncnc(OC)c23)cc1OC [Compound 9b, 6-chloro-7-(2,4-dichlorophenyl)-5-(3,4-dimethoxyphenyl)-4-methoxy-7H-pyrrolo[2,3-d]pyrimidine] | – | 100 | 45.6 ± 3.2 | 63.8 ± 0.6 | – | – | – | 2.5 ± 0.3 | – | – | – | – | – | – | – | –
13 | Clc1ccc(-n2c(Cl)c(-c3ccc(Br)cc3)c3c(N4CCCC4)nc(C(Cl)(Cl)Cl)nc32)c(Cl)c1 [Compound 10, 5-(4-bromophenyl)-6-chloro-7-(2,4-dichlorophenyl)-4-(pyrrolidin-1-yl)-2-(trichloromethyl)-7H-pyrrolo[2,3-d]pyrimidine] | 100 | 100 | 100 | – | 10.2 ± 0.5 | 100 | – | 100 | 61.1 ± 1.4 (≈ 95.5 µM) | – | – | – | – | 26.9 ± 0.6 (≈ 42 µM) | 11.6 ± 0.8 (≈ 18.1 µM) | –
14 | O=c1[nH]cnc2c1c(-c1ccc(Br)cc1)cn2-c1ccc(Cl)cc1Cl [Compound 3a, 5-(4-bromophenyl)-7-(2,4-dichlorophenyl)-3,7-dihydro-4H-pyrrolo[2,3-d]pyrimidin-4-one] | 95.3 ± 1.8 | 63.5 ± 2.6 | 80 to 90 | 100 | 3.4 ± 0.2 | 36.5 ± 0.9 | – | 71.3 ± 0.8 | – | – | 19.2 ± 0.6 (≈ 44.1 µM) | – | – | 44.5 ± 1.3 (≈ 102 µM) | – | 84.3 ± 1.1

From paper PMC10463376, “Design, synthesis, in vitro anticancer, molecular docking and SAR studies of new series of pyrrolo[2,3-d]pyrimidine derivatives” (BMC Chemistry, 2023)
